# Laboratory results as given in US20240190878A1, “ANTIVIRAL PRODRUGS OF ETV AND FORMULATIONS THEREOF” (THE SCRIPPS RESEARCH INSTITUTE, priority 2022, published 2024).
# Read-outs that look alike come from different tables or passages of the source.
# Tests used:
# [1] = Single dose rat PK, intramuscular (Example 39); type: in vivo, Male SD rats
# Procedure: (§1) Animals. Animals (Male SD rats ˜200-250 g and Male Beagle dog ˜12-15 kg) were obtained from an approved vendor.
# (§2) Animals were […] at least 12 hours prior to the administration. All animals had access to Certified Rodent and non-Rodent Diet ad libitum 4 hours post dosing.
# (§3) Dose Formulation. The formulations were prepared on the day of dosing. Animals were dosed within four hours after the formulation is prepared. Two 20 μL aliquots of each formulation were removed from each of the formulation solutions, transferred into 1.5 mL of polypropylene microcentrifuge tubes and run dose validation by LC/UV or LC-MS/MS.
# (§4) Dose Administration. For SC/IM dosing, the dose formulation was administered via subcutaneous/intramuscular injection respectively following facility SOPs.
# (§5) Sample Collection. Approximately 200 μL blood was collected from saphenous vein at each time point for rats and 0.5 mL for rhesus macaques. All blood samples were transferred into microcentrifuge tubes containing 4 μL of K2EDTA (0.5M) as anti-coagulant and placed on wet ice until processed for plasma.
# (§6) Blood/Plasma processing. Blood: Blood samples were processed for plasma by centrifugation at approximately 4° C., 3000 g 15 min within half an hour of collection. Plasma samples was stored in polypropylene tubes, quick frozen over dry ice and kept at −70±10° C. until LC/MS/MS analysis.
# (§7) • LC-MS/MS methods for the quantitative determination of test compound in corresponded biological matrix was developed under non-GLP compliance. • A calibration curve with 8 non-zero calibration standards was applied for the method including LLOQ. • A set of QC samples consisting of low, middle, and high concentration was applied for the method. • The study sample analysis will be performed concurrently with a set of calibration standards and two sets of QC samples using the LC-MS/MS method (If sample numbers were more than 48, then two calibration curves with 2 sets of QC samples were applied). • Acceptance criteria: • Linearity: a minimum of 6 calibration standards was back calculated to within ±20% of their nominal values in plasma. • Accuracy: A minimum of 4 out of 6 QC samples was back calculated to within ±20% of their nominal values in plasma. • Specificity: The mean calculated concentration in the single blank matrix should be 0.5 times the LLOQ. • Sensitivity: the LLOQ will be tried to target 1˜3 ng/mL. • Carryover: the mean calculated carry-over concentration in the single blank matrix immediately after the highest standard injection should be LLOQ. If the carryover couldn't meet the criteria, then the percent of carryover should be estimated following in-house bioanalytical SOP.
# Data Analysis. Plasma concentration versus time data was analyzed by non-compartmental approaches using the Phoenix WinNonlin 6.3 software program. Cmax, Tmax, T1/2, AUC(0-1), AUC(0-int), MRT(0-1), MRT(0-int), % F and graphs of plasma concentration versus time profile were reported.
# Bis-DHA prodrug 9 (31 mg/kg equivalent dose of ETV) and ETV (20 mg/kg) were subjected to single dose rat PK studies via intramuscular route of administration. Non-micronized prodrug and ETV were used. […] Enhanced half-life and mean residence life were also observed for prodrug 9 making it suitable as a long-acting agent.
# The data are shown in graphic form in FIG. 18.
# [2] = Single dose dog PK, intramuscular and subcutaneous, monitored 56 days (Example 41); type: in vivo, Male Beagle dog; conditions: dose-normalized
# Procedure: as §1, §2, §3, §4, §5, §6, §7
# (§8) Data Analysis. Plasma concentration versus time data was analyzed by non-compartmental approaches using the Phoenix WinNonlin 6.3 software program.
# The aqueous suspension formulations were derived from 0.5% CMC-Na and 0.5% Tween 80. […] Micronized ETV-palmitate (D50=3.0 um; D90=10.5 um) and prodrug 36 (D50=7.0 um; D90=16.6 um) and non-micronized prodrug 11 (D50=4.4 um; D90=13.0 um) were used for this study.
# The data are shown in graphic form in FIG. 12.
# [3] = male, beagle, dog, in vivo, 20 mg/kg
# Procedure: as §1, §2, §3, §4, §5, §6, §7, §8
# The aqueous suspension formulations were derived from 0.5% CMC-Na and 0.5% Tween 80. […] Micronized ETV (D50=2.4 um; D90=5.0 um) and prodrug 29 (D50=1.8 um; D90=4.0 um) and non-micronized prodrug 11 (D50=4.4 um; D90=13.0 um) were used for this study.
compound,measurement,setting,value
"C=C1[C@H](COC(=O)CC/C=C\C/C=C\C/C=C\C/C=C\C/C=C\C/C=C\CC)[C@@H](OC(=O)CC/C=C\C/C=C\C/C=C\C/C=C\C/C=C\C/C=C\CC)C[C@@H]1n1cnc2c(=O)[nH]c(N)nc21 [Prodrug 9, (4Z,7Z,10Z,13Z,16Z,19Z)-(1S,2R,4S)-4-(2-amino-6-oxo-1H-purin-9(6H)-yl)-2-(((4Z,7Z,10Z,13Z,16Z,19Z)-docosa-4,7,10,13,16,19-hexaenoyloxy)methyl)-3-methylenecyclopentyl docosa-4,7,10,13,16,19-hexaenoate]",half-life and mean residence life,"[1]; single IM dose, compared with ETV",Enhanced
same,d.n. Cmax,"[1]; single IM dose, dose-normalized",0.37 ng/mL/mg/kg
C=C1[C@H](CO)[C@@H](OC(=O)Cc2ccccc2)C[C@@H]1n1cnc2c(=O)[nH]c(N)nc21 [Prodrug 36],d.n. AUC0-last,[2]; single SC dose,1586 ng·h/mL/mg/kg
same,d.n. Cmax,[2]; single SC dose,8.2 ng/mL/mg/kg
"C=C1[C@H](COC(=O)Cc2ccccc2)[C@@H](OC(=O)Cc2ccccc2)C[C@@H]1n1cnc2c(=O)[nH]c(N)nc21 [Prodrug 11, ((1R,3S,5S)-3-(2-amino-6-oxo-1H-purin-9(6H)-yl)-2-methylene-5-(2-phenylacetoxy)cyclopentyl)methyl 2-phenylacetate]",d.n. AUC0-last,[2]; single IM dose,1286 ng·h/mL/mg/kg
same,d.n. Cmax,[2]; single IM dose,2.2 ng/mL/mg/kg
same,d.n. AUC0-last,[2]; single SC dose,874 ng·h/mL/mg/kg
same,d.n. Cmax,[2]; single SC dose,1.8 ng/mL/mg/kg
"C=C1[C@H](CO)[C@@H](O)C[C@@H]1n1cnc2c(=O)[nH]c(N)nc21 [ETV, Entecavir]",d.n. Cmax,"[1]; in vivo, im",91.65 ng/mL/mg/kg
same,Clast,"[1]; male, SD, in vivo",1.4 ng/mL
same,day of Clast,"[1]; male, SD, in vivo",5 days
same,Clast,[3],0.2 ng/mL
same,day of Clast,[3],41 days
same,AUC0-inf,[3]; im,25294 ± 2044 ng·h/mL
same,AUC0-last,[3]; im,25134 ± 1970 ng·h/mL
same,Cmax,[3]; im,2390 ± 219 ng/mL
same,MRT0-inf,[3]; im,30.8 ± 4.8 h
same,T1/2,[3]; im,438 ± 263 h
same,Tmax,[3]; im,2.3 ± 1.2 h
